# Measured values reported in publication PMC6231190 (ACS Medicinal Chemistry Letters, 2018).
# Like-named read-outs stand apart in the source and are kept apart here.
# Legend:
# WT p97 = WT p97 (Homo sapiens, UniProt P55072); details: for p97 inhibition (in words): biochemical ATPase assay; for fold less potent than 17: p97 IC50 ratio vs 17
# [1] = tested on: HeLa cell line with the ubiquitin fusion degradation reporter UbG76V-GFP; experiment: UbG76V-GFP accumulation assay
# Aqueous solubility = format: physicochemical; details: potassium phosphate buffer, pH 7.4, solubility (μM)
# [2] = Metabolic stability in mouse liver microsomes; format: in vitro ADME; details: pH 7.4, MLM (t1/2, min)
# NCI-60 cell line panel [3] = details: range over lines; for pGI50, CNS tumor cell lines: NCI-60 CNS tumor subpanel; for pGI50, NSCL cancer cell lines: NCI-60 NSCL cancer subpanel; for pGI50, leukemia cell lines: NCI-60 leukemia subpanel; for pGI50, melanoma cell lines: NCI-60 melanoma subpanel; for pGI50, ovarian cancer cell lines: NCI-60 ovarian cancer subpanel; for pGI50, renal cancer cell lines: NCI-60 renal cancer subpanel
# NCI-60 cell line panel [4] = experiment: cells; details: Homo sapiens, read-out: pGI50, prostate cancer cell lines (converted)
# [5] = Metabolic stability in human liver microsomes; format: in vitro ADME; details: pH 7.4, HLM (t1/2, min)
# [6] = Homo sapiens, HeLa, 6 h, read-out: Ub^G76 V-GFP EC50 (μM), 6 h
# Chain of WT p97 (P55072 whole entry, the tested form may be a part): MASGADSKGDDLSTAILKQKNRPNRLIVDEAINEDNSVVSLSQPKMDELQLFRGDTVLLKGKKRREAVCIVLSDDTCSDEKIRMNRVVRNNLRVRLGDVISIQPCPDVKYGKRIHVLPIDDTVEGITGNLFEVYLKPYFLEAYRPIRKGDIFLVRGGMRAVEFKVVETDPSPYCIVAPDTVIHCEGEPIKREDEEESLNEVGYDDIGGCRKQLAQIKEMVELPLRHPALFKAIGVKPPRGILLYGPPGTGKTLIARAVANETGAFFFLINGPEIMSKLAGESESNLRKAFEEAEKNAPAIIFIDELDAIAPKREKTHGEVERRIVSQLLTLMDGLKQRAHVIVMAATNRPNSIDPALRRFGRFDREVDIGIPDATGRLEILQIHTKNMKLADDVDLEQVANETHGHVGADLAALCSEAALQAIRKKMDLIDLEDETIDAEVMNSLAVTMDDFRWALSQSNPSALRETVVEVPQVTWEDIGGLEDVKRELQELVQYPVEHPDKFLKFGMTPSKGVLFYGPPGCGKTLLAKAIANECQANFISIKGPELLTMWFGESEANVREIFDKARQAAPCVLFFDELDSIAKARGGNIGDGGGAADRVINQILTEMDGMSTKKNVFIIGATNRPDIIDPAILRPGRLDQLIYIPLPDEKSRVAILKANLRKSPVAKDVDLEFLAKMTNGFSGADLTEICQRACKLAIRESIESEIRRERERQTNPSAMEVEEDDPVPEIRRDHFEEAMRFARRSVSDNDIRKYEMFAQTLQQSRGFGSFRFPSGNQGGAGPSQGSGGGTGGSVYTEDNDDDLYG
compound,measurement,setting,value
CC(C)N1CCN(C2CCN(c3cccc(-c4cc5cc(F)ccc5[nH]4)c3)CC2)CC1 [Compound 21],p97 inhibition (in words),WT p97,micromolar range
CC(C)N1CCN(CCCNC2CCN(c3cccc(-c4cc5ccccc5[nH]4)c3)CC2)CC1 [Compound 13],fold less potent than 2-carbon homologue 11,WT p97; p97 IC50 ratio vs 11,~2 fold
CC(C)N1CCC(N[C@H]2CC[C@H](c3cccc(-c4cc5cc(F)ccc5[nH]4)c3)CC2)CC1 [Compound 18],fold less potent than 17,WT p97,3–4 fold
"Cc1cc(OCc2nnc(SC3CCCC3)n2-c2cccnc2)ccc1-c1ccc(S(C)(=O)=O)cc1 [NMS-873, reference compound]",EC50,"[1]; read-out: Ub^G76 V-GFP EC50 (μM), 1 h",1.4 µM
CC(C)N1CCC(N[C@H]2CC[C@@H](c3cccc(-c4cc5cc(F)ccc5[nH]4)c3)CC2)CC1 [Compound 19],fold less potent than 17,WT p97,> 100 fold
same,fold less potent compared to the trans-isomer,WT p97; p97 IC50 ratio vs 18,> 20 fold
c1cc(-c2cc3ccccc3[nH]2)cc(N2CCC(NCCN3CCNCC3)CC2)c1 [Compound 8],improvement in potency compared to compound 1,WT p97; p97 IC50 ratio vs 1,~3 fold
CC(C)N1CC2CN(c3cccc(-c4cc5cc(F)ccc5[nH]4)c3)CC2C1 (centres unmarked) [Compound 22],p97 inhibition (in words),WT p97,micromolar range
CC(C)N1CCC2(CCN(c3cccc(-c4cc5cc(F)ccc5[nH]4)c3)CC2)CC1 [Compound 20],p97 inhibition (in words),WT p97,micromolar range
CC(C)N1CCC(NC2CCN(c3cccc(-c4cc5cc(F)ccc5[nH]4)c3)CC2)CC1 [Compound 17],solubility,Aqueous solubility,> 300 µM
same,half-life at 10 µM,[2],> 4.5 h
same,"pGI50, CNS tumor cell lines",NCI-60 cell line panel [3],−5.7 to −5.8
same,"pGI50, NSCL cancer cell lines",NCI-60 cell line panel [3],−5.7 to −6.0
same,"pGI50, colon cancer cell lines",NCI-60 cell line panel [3]; NCI-60 colon cancer subpanel,5.8 to −6.4
same,"pGI50, leukemia cell lines",NCI-60 cell line panel [3],−5.7 to −6.7
same,"pGI50, melanoma cell lines",NCI-60 cell line panel [3],−5.7 to −5.9
same,"pGI50, ovarian cancer cell lines",NCI-60 cell line panel [3],−5.7 to −5.8
same,"pGI50, renal cancer cell lines",NCI-60 cell line panel [3],−5.7 to −5.8
same,GI50,NCI-60 cell line panel [4],2000 nM
same,EC50,[1]; [6],> 40 µM
CN1CCN(C2(CNC3CCN(c4cccc(-c5cc6cc(F)ccc6[nH]5)c4)CC3)CCC2)CC1 [Compound 23],solubility,Aqueous solubility,> 300 µM
same,half-life at 10 µM,[5],> 4.5 h
same,half-life at 10 µM,[2],> 4.5 h
same,fold more potent than the N-iPr analog (24),WT p97; p97 IC50 ratio vs 24,5 fold
same,"pGI50, CNS tumor cell lines",NCI-60 cell line panel [3],−5.7 to −5.8
same,"pGI50, NSCL cancer cell lines",NCI-60 cell line panel [3],−5.7 to −5.8
same,"pGI50, leukemia cell lines",NCI-60 cell line panel [3],−5.7 to −6.7
same,"pGI50, melanoma cell lines",NCI-60 cell line panel [3],−5.7 to −6.5
same,"pGI50, ovarian cancer cell lines",NCI-60 cell line panel [3],−5.7 to −5.8
same,"pGI50, renal cancer cell lines",NCI-60 cell line panel [3],−5.7 to −5.8
same,EC50,[1]; [6],> 40 µM
CN(C)CCNC1CCN(c2cccc(-c3cc4cc(F)ccc4[nH]3)c2)CC1 [Compound 15],fold less potent than 14,WT p97; p97 IC50 ratio vs 14,> 10 fold
